In brackets after ≈: the same amount, converted by molar mass.
Columns and labels:
[1] = test system: E. coli ATCC25922; assay: MBC determination; assay type: cell-based; conditions: Escherichia coli, 3-log reduction, 24 hour, 37° C., half strength MHB in PBS
Method: (§1) To determine MBC, bacteria were cultured in TSB (Staphylococcus), THB (Streptococcus) or Nutrient broth (P. aeruginosa and E. coli) by reaching exponential phase (OD600=0.5-0.8). […] After incubation, the number of viable bacteria was measured by counting CFU after spreading 10-fold serial dilutions of bacteria on suitable agar plates. MBC was determined as a 3-log reduction (99.9%) of viable bacteria after 24 hour incubation.
(§2) Antimicrobial activity of 6-HAP in vitro. To examine the specificity of 6-HAP for various bacteria, minimal bactericidal concentrations (MBCs) were determined according to dose-dependent killing curves at 24 hrs of incubation in vitro (Table 1). 6-HAP killed or suppressed growth of several major skin pathogens including GAS (NZ131), group B Streptococcus (GBS) (DK23), methicillin-sensitive S. aureus (ATCC35556), methicillin-resistant S. aureus (MRSA) strains (USA300 and Sanger252), Pseudomonas aeruginosa (P. aeruginosa) (ATCC14213) in vitro. […] S. epidermidis (ATCC12228) was also resistant to 6-HAP.

[2] = test system: P. aeruginosa ATCC14213; assay: MBC determination; assay type: cell-based; conditions: Pseudomonas aeruginosa, 3-log reduction, 24 hour, 37° C., half strength MHB in PBS
Method: as §1, §2

[3] = test system: S. aureus ATCC35556; assay: MBC determination; assay type: cell-based; conditions: Staphylococcus aureus, 3-log reduction, 24 hour, 37° C., half strength MHB in PBS
Method: as §1, §2

[4] = test system: S. epidermidis ATCC12228; assay: MBC determination; assay type: cell-based; conditions: Staphylococcus epidermidis, 3-log reduction, 24 hour, 37° C., half strength MHB in PBS
Method: as §1, §2

[5] = test system: S. hominis ATCC27844; assay: MBC determination; assay type: cell-based; conditions: Staphylococcus hominis, 3-log reduction, 24 hour, 37° C., half strength MHB in PBS
Method: as §1, §2

[6] = test system: GAS (NZ131); assay: Radial diffusion assay against GAS; assay type: cell-based, group A streptococcus; conditions: fraction purified from MO34 conditioned media
Source text: (a) Screening for antimicrobial activity of culture supernatant from 44 strains of S. epidermidis strains isolated from normal human skin by radial diffusion assay against group A streptococcus (GAS). Data represent diameter of growth inhibition zone of conditioned media of each strain. UD=undetectable. (b) Elution profile of the antimicrobial compound purified from culture supernatant of S. epidermidis MO34 by HPLC using a PolyHYDROXYMETHYL. The last step of 5 purification steps is shown. The insert panel represents antimicrobial activity of each fraction on radial diffusion assay against GAS. Green line represents a gradient of H2O in acetonitrile. […] Antimicrobial activity against GAS was determined by radial diffusion assay. […]
S. epidermidis strains from human skin produce non-proteinaceous antibiotic. To screen for commensal skin bacteria producing antimicrobial activity, 44 strains of S. epidermidis from clinical isolates of normal human skin were cultured overnight and the antimicrobial activity produced by each isolate was determined by radial diffusion assay of their conditioned media against GAS (FIG. 1a). […]

[7] = test system: B16F10 melanoma; assay: Cell proliferation assay (BrdU incorporation); assay type: cell-based, mouse; conditions: B16F10, 4-hr incubation
Method: (§3) Proliferative activity of tumor cell line, L5178 (a), YAC-1 lymphoma (b), B16F10 melanoma (c) after 4-hr incubation in suitable media containing indicated concentrations of 6-HAP or mitomycin C (10 μg/mL). Proliferative activity of cells was determined by monitoring BrdU incorporation. The data represent mean±SE of four individual experiments.
(§4) Cell culture and cell proliferation assay. B16F10 mouse melanoma, Pam212, L5178 and YAC-1 mouse […] cell lines were obtained from American Type Culture Collection. Pam212, L5178 and YAC-1 cell lines were maintained in RPMI-1640 supplemented with sodium pyruvate (1 mM), nonessential amino acids (0.1 mM), penicillin (100 unit/mL), streptomycin (100 μg/mL) and 10% heat-inactivated fetal bovine serum (FBS) or horse serum at 37° C. under atmosphere of 5% (v/v) CO2 in air. B16F10 cell line was maintained in DMEM supplemented with penicillin (100 unit/mL), streptomycin (100 μg/mL) and 10% heat-inactivated FBS. NHEKs were obtained from Invitrogen (Life technologies, Grand Island, NY) and maintained in EpiLife medium (Life technologies) supplemented with 60 μM Calcium, epidermal growth factors, penicillin and streptomycin. After 4-hr (tumor cell lines) or 24-hr (NHEK) incubation with 6-HAP, proliferative activity of cells was colorimetrically determined by monitoring BrdU incorporation with Cell Proliferation kit according to the manual (Roche).

[8] = test system: L5178 lymphoma; assay: Cell proliferation assay (BrdU incorporation); assay type: cell-based, mouse; conditions: L5178, 4-hr incubation
Method: as §3, §4

[9] = test system: YAC-1 lymphoma; assay: Cell proliferation assay (BrdU incorporation); assay type: cell-based, mouse; conditions: YAC-1, 4-hr incubation
Method: as §3, §4

[10] = Systemic toxicity in mice; assay type: in vivo; conditions: intravenous 20 mg/kg every 48 hrs for 2 weeks
Method: C57BL6 mice (8 week female) were intravascularly administrated with 6-HAP (20 mg/kg) or with an equal volume of vehicle (2.5% DMSO in 0.9% NaCl) every 48 hours for 2 weeks (Arrows). To observe toxicity of 6-HAP, mouse weight was determined at indicated time points. Data represent mean±SE of 10 mice.
Effect of systemic administration with 6-HAP on skin infection and melanoma growth in mice. […] Thus, given the apparent lack of toxicity, the effect on deep tissue infection was tested by intravenously injecting the non-toxic dose of 6-HAP (20 mg/kg) into a mouse model of GAS deep skin infection.

Question: Which results are given for `ONc1ncnc2nc[nH]c12` [6-HAP, 6-N-hydroxyaminopurine]?
Answer: MBC [1]: 50 µg/mL (≈ 331 µM); MBC [2]: 1.56 µg/mL (≈ 10.3 µM); MBC [3]: 6.25 µg/mL (≈ 41.4 µM); MBC [4]: > 50 µg/mL; MBC [5]: 12.5 µg/mL (≈ 82.7 µM); zones of inhibition of GAS growth by purified fraction [6]: strong zones of inhibition; BrdU incorporation [7]: inhibited; BrdU incorporation [8]: inhibited; BrdU incorporation [9]: inhibited; toxic effects assessed by visual appearance, behavior or change in weight [10]: no apparent toxic effects
